Measurements taken from patent publication US11590129B2, “Combination therapy with an antitumor alkaloid” (PHARMA MAR, S.A., priority 2010, dated 2023).
Read-outs that look alike come from different tables or passages of the source.

Experiments:
[1] = tested on: MDA-MB-231 human breast adenocarcinoma cell line; test: cells; settings: Homo sapiens, MDA-MB-231, 72 h
[2] = tested on: RXF-393 human kidney carcinoma cell line; test: cells; settings: Homo sapiens, RXF 393, 72 h
[3] = tested on: HGC-27 human gastric carcinoma cell line; test: cells; settings: Homo sapiens, HGC-27, 72 h
[4] = tested on: HepG2 human hepatocellular liver carcinoma cell line; test: MTT cytotoxicity assay in HepG2 cells: IC50 of single agents and combinations with PM01183; format: cell-based; settings: Homo sapiens
[5] = tested on: IGROV-1 human ovarian adenocarcinoma cell line; test: cells; settings: Homo sapiens, IGROV-1, 72 h
[6] = tested on: HT-29 human colon adenocarcinoma cell line; test: cells; settings: Homo sapiens, HT-29, 72 h
Outline: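 HT-29 cells (5,000/well) were attached for 24 h, then exposed to vehicle or compounds for 72 h. Viability was read by MTT reduction, with 8 h MTT at 37° C and formazan dissolved in DMSO. Values are % of control cell growth.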

[7] = tested on: SK-MEL-2 human melanoma cell line; test: cells; settings: Homo sapiens, SK-MEL-2, 72 h
Procedure: (§1) a. […] Briefly, cells were harvested and seeded in 96 well microtiter plates at a density of 5,000 cells in 150 μL of culture medium and incubated for 24 hours in drug-free medium before treatment with vehicle alone or test compounds for 72 h.
(§2) The cytotoxic effect was measured by the MTT reduction assay, in which 3-(4,5-Dimethylthiazol-2-yl)-2,5-diphenyltetrazolium bromide, a tetrazole, which is reduced to purple formazan in the mitochondria of living cells, was used. MTT (50 μL of 1 mg/mL stock solution) was added to the wells and incubated for 8 hours at 37° C. until formazan crystals were formed. After gently removing the culture medium, DMSO was added to dissolve the insoluble purple formazan product into a colored solution. […] Results were expressed as percentage of control cell growth.
(§3) b. In a second set of assays, A549 human tumor cells were incubated with PM01183 in combination with each of the agents mentioned above.
(§4) As a visual aid, response values were plotted on a scatter plot with dose ratios given on the x-axis and % response values on the y-axis. […] In cases where response values at the two endpoints were approximately equivalent, points lying above or below this predicted line of additivity could be interpreted as representing antagonistic or synergistic drug interaction, respectively.
(§5) Additional serial dilutions were prepared in serum-free culture medium to achieve a final 4× concentration. Aliquots of 50 μL of each diluted compound were added per well.
SK-MEL-2 was the human melanoma cell line selected for this assay.

[8] = tested on: PANC-1 human pancreatic carcinoma cell line; test: cells; settings: Homo sapiens, PANC-1, 72 h
Procedure: as §1, §2, §3, §4, §5
PANC-1 was the human pancreatic carcinoma cell line selected for this assay.

[9] = tested on: RAMOS human lymphoma cell line; test: cells; settings: Homo sapiens, Ramos, 72 h
Procedure: (§6) Briefly, cells were seeded in 96 well microtiter plates at a density of 50000 cells per well in 150 μL of culture medium and incubated for 4-6 hours in drug-free medium before treatment with vehicle alone or test compounds for 72 hours.
(§7) After incubation, the cytotoxic effect was evaluated using a MTT reduction assay. 50 μL of MTT solution (1 mg/mL) were added to the wells and incubated for 15-17 hours at 37° C. until formazan crystals were formed. After gently removing the culture medium, DMSO was added to dissolve the insoluble purple formazan product into a colored solution. […] Results were expressed as percentage of control cell growth. The EC50 values (half-maximal effective concentration) used for the combination studies were calculated using Prism v5.02 software (GraphPad). EC50 was expressed as molar concentration and represented the mean of at least three independent assays.
(§8) Using these starting concentrations, constant serial dilutions were performed to generate the concentration-response curves for each set of drugs, alone and in combination.
(§9) Based on this equation, the term “combination index” (CI) is used as a quantitative measure of the degree of drug interactions. […] CI values were calculated by solving the equation for different values of fa (i.e., for different degrees of cell groth inhibition).
(§10) Data were analyzed using CalcuSyn software (Biosoft, Cambridge, UK). For statistical analysis and graphs Prism software (GraphPad, San Diego, USA) was used. All the results represent the mean of at least three independent experiments.
as §5
(§11) In the second set of assays, concentration-response curves for the agents tested, both alone and in two-drug combination, were performed.

[10] = tested on: PC-3 human prostate cancer cell line; test: cells; settings: Homo sapiens, PC-3, 72 h
Outline: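 Cells seeded at 5,000/well, grown 24 h drug-free, then exposed to vehicle or test compounds for 72 h. Viability by MTT reduction (8 h, 37 °C), formazan dissolved in DMSO. Values given as percentage of control cell growth.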

[11] = tested on: A673 human rhabdomyosarcoma cell line; test: cells; settings: Homo sapiens, A673, 72 h
Procedure: as §1, §2, §3, §4, §5
A673 was the human rhabdomyosarcoma cell line selected for this assay.

[12] = tested on: U87-MG human glioblastoma cell line; test: cells; settings: Homo sapiens, U-87 MG, 72 h
[13] = tested on: A549 human lung carcinoma cell line; test: MTT cytotoxicity assay in A549 cells: IC50 of single agents and combinations with PM01183; format: cell-based; settings: Homo sapiens
Outline: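 A549 cells seeded at 5,000 per well, grown 24 h drug-free, then exposed to vehicle or compounds for 72 h, either singly or combined with PM01183. Combination responses plotted against dose ratio relative to an additivity line.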

SW1990 tumors = test: Human pancreatic tumor xenografts (SW1990) in athymic nude mice, tumor volume % T/C; format: in vivo
Procedure: Female athymic nude mice (Harlan Laboratories Models, S.L. (Barcelona, Spain) were utilized for all experiments. Animals were housed in individually ventilated cages, up to ten per cage in a 12-hour light-dark cycle at 21-23° C. and 40-60% humidity. The mice were allowed free access to irradiated standard rodent diet and sterilized water. Animals were acclimated for at least 5 days prior to tumor implantation with a tumor cell suspension.
Each animal was subcutaneously implanted on the right flank, using 26G needle and a 1 cc syringe, with 5×10^6 SW1990 cells, from in vitro passage 12, in 0.05 mL suspension of 50% Matrigel and 50% serum free medium, without antibiotics.
PM01183 was provided in the form of vials of lyophilized PM01183 cake which was reconstituted with water for infusion to a concentration of 0.2 mg/mL. The PM01183 stock solution was further diluted in 5% glucose solution for injection to the dosing formulation concentrations.
Dose level groups were administered either as single agents or in combination.
Comparison of the median tumor volume in the treatment groups (T) to the median tumor volume in the control group (T/C×100%) was used for evaluation of the antitumor efficacy.

[14] = tested on: U-937 human lymphoma cell line; test: cells; settings: Homo sapiens, U-937, 72 h
Procedure: as §6, §7, §8, §9, §10, §5, §11

[15] = gemcitabine 45.0 mg/kg iv days 0,7,14
[16] = gemcitabine 90.0 mg/kg iv days 0,7,14
[17] = gemcitabine 135.0 mg/kg iv days 0,7,14
[18] = gemcitabine 180.0 mg/kg iv days 0,7,14
[19] = A549, 72 hours drug exposure, MTT, read-out: IC50

Nc1ccn([C@@H]2O[C@H](CO)[C@@H](O)[C@@H]2O)c(=O)n1 [Cytarabine, cytarabine]
IC50 [1]: 9570 nM | IC50 [2]: 50000 nM | IC50 [3]: 50000 nM | IC50 ([4]; HepG2, 72 h): 20600 nM | IC50 [5]: 11700 nM | IC50 [6]: 7800 nM | IC50 [7]: 3890 nM | IC50 [8]: 90000 nM | EC50 [9]: 36.4 nM | IC50 [10]: 40000 nM | IC50 [11]: 197 nM

COc1cc([C@@H]2c3cc4c(cc3[C@@H](O[C@@H]3O[C@@H]5CO[C@@H](C)O[C@H]5[C@H](O)[C@H]3O)[C@H]3COC(=O)[C@H]23)OCO4)cc(OC)c1O [Etoposide, etoposide]
IC50 [1]: 4800 nM | IC50 [2]: 20000 nM | IC50 [3]: 2900 nM | IC50 ([4]; HepG2, 72 h): 10400 nM | IC50 [5]: 3060 nM | IC50 [6]: 5440 nM | IC50 [12]: 18500 nM | IC50 [7]: 2890 nM | IC50 [8]: 10000 nM | IC50 ([13]; A549, 72 h): 782 nM | IC50 [10]: 48000 nM | IC50 [11]: 1550 nM

Nc1ccn([C@@H]2O[C@H](CO)[C@@H](O)C2(F)F)c(=O)n1 [Gemcitabine, gemcitabine]
IC50 [1]: 8.5 nM | IC50 [2]: 500 nM | IC50 [3]: 0.534 nM | IC50 ([4]; HepG2, 72 hours drug exposure, MTT, read-out: IC50): 5.34 nM | IC50 [5]: 6.34 nM | IC50 [6]: 400 nM | IC50 [12]: 450 nM | % T/C on day 0 (SW1990 tumors; [15]): 102.3% | % T/C on day 3 (SW1990 tumors; [15]): 85.5% | % T/C on day 6 (SW1990 tumors; [15]): 70.3% | % T/C on day 8 (SW1990 tumors; [15]): 70.5% | % T/C on day 10 (SW1990 tumors; [15]): 63.3% | % T/C on day 13 (SW1990 tumors; [15]): 64.8% | % T/C on day 15 (SW1990 tumors; [15]): 63.1% | % T/C on day 17 (SW1990 tumors; [15]): 58.5% | % T/C on day 20 (SW1990 tumors; [15]): 58.7% | % T/C on day 22 (SW1990 tumors; [15]): 57.3% | % T/C on day 24 (SW1990 tumors; [15]): 65.2% | % T/C on day 28 (SW1990 tumors; [15]): 59.3% | % T/C on day 0 (SW1990 tumors; [16]): 103.8% | % T/C on day 3 (SW1990 tumors; [16]): 70.0% | % T/C on day 6 (SW1990 tumors; [16]): 73.8% | % T/C on day 8 (SW1990 tumors; [16]): 63.3% | % T/C on day 10 (SW1990 tumors; [16]): 55.6% | % T/C on day 13 (SW1990 tumors; [16]): 54.8% | % T/C on day 15 (SW1990 tumors; [16]): 49.9% | % T/C on day 20 (SW1990 tumors; [16]): 47.6% | % T/C on day 22 (SW1990 tumors; [16]): 47.0% | % T/C on day 24 (SW1990 tumors; [16]): 45.9% | % T/C on day 28 (SW1990 tumors; [16]): 49.2% | % T/C on day 0 (SW1990 tumors; [17]): 102.3% | % T/C on day 3 (SW1990 tumors; [17]): 78.3% | % T/C on day 6 (SW1990 tumors; [17]): 71.9% | % T/C on day 8 (SW1990 tumors; [17]): 63.7% | % T/C on day 10 (SW1990 tumors; [17]): 55.4% | % T/C on day 13 (SW1990 tumors; [17]): 52.7% | % T/C on day 15 (SW1990 tumors; [17]): 54.8% | % T/C on day 17 (SW1990 tumors; [17]): 51.2% | % T/C on day 20 (SW1990 tumors; [17]): 49.5% | % T/C on day 22 (SW1990 tumors; [17]): 48.7% | % T/C on day 24 (SW1990 tumors; [17]): 49.8% | % T/C on day 28 (SW1990 tumors; [17]): 49.5% | % T/C on day 0 (SW1990 tumors; [18]): 102.2% | % T/C on day 3 (SW1990 tumors; [18]): 84.1% | % T/C on day 6 (SW1990 tumors; [18]): 73.9% | % T/C on day 8 (SW1990 tumors; [18]): 66.1% | % T/C on day 10 (SW1990 tumors; [18]): 60.9% | % T/C on day 13 (SW1990 tumors; [18]): 59.4% | % T/C on day 15 (SW1990 tumors; [18]): 58.5% | % T/C on day 17 (SW1990 tumors; [18]): 52.1% | % T/C on day 20 (SW1990 tumors; [18]): 49.1% | % T/C on day 22 (SW1990 tumors; [18]): 48.6% | % T/C on day 24 (SW1990 tumors; [18]): 46.9% | % T/C on day 28 (SW1990 tumors; [18]): 39.3% | IC50 [8]: 1000 nM | IC50 [13, 19]: 0.28 nM | EC50 [9]: 25.1 nM | EC50 [14]: 32.7 nM | IC50 [10]: 400 nM | IC50 [11]: 0.434 nM

CO[C@H]1C[C@@H]2CC[C@@H](C)[C@@](O)(O2)C(=O)C(=O)N2CCCC[C@H]2C(=O)O[C@H]([C@H](C)C[C@@H]2CC[C@@H](OC(=O)C(C)(CO)CO)[C@H](OC)C2)CC(=O)[C@H](C)/C=C(\C)[C@@H](O)[C@@H](OC)C(=O)[C@H](C)C[C@H](C)/C=C/C=C/C=C/1C [Temsirolimus, temsirolimus]
IC50 [1]: 12000 nM | IC50 [3]: 150 nM | IC50 [5]: 127 nM | IC50 [6]: 3500 nM | IC50 [12]: 3500 nM | IC50 [7]: 50000 nM | IC50 [8]: 10000 nM | IC50 [13, 19]: 3290 nM | IC50 [10]: 500 nM | IC50 [11]: 1000 nM

CC[C@@]1(O)C(=O)OCc2c1cc1n(c2=O)Cc2cc3c(CN(C)C)c(O)ccc3nc2-1 [Topotecan, topotecan]
IC50 [1]: 166 nM | IC50 [2]: 393 nM | IC50 [3]: 808 nM | IC50 ([4]; HepG2, 72 h): 1000 nM | IC50 [5]: 300 nM | IC50 [6]: 328 nM | IC50 [12]: 750 nM | IC50 [7]: 437 nM | IC50 [8]: 4370 nM | IC50 ([13]; A549, 72 h): 800 nM | IC50 [10]: 633 nM | IC50 [11]: 24 nM
